Reference: patent US5252580A, “Indole derivatives and anti-ulcer compositions thereof” (priority 1991, dated 1993)

Tests used:
H^+ /K^+ ATPase = biological target: T1, H^+ /K^+ ATPase (Sus scrofa, UniProt P19156); assay: H^+ /K^+ ATPase Inhibitory Activity Assay; format: biochemical; settings: pig stomach enzyme, 37° C., pH 6.2; for inhibition at 10 µg/mL: 10 μg/ml
T1 construct: prepared from the stomach of pig; from tissue; host or cells: pig stomach
Protocol: H^+ /K^+ ATPase Inhibitory Activity Assay
The inhibitory activity was determined in the following manner using H^+ /K^+ ATPase prepared from the stomach of pig.
H^+ /K^+ ATPase dilute solution (100 μl, 50 μg as protein) was added to PIPES-tris (pH 6.2) buffer solution (440 μl) containing 4 mM magnesium chloride and 20 mM potassium chloride. Further, 0.1% ethanol solution of nigericin (5 μl) was added. To the solution was added dimethyl sulfoxide (5 μl) and the mixture was incubated at 37° C. for 30 minutes. Then 10 mM PIPES-tris buffer solution (450 μl) containing 4 mM ATP disodium was added to initiate the reaction. 30 minutes later, 50% trichloroacetic acid (1 μl) was added to cease the reaction. The amount of phosphorus released in this reaction was determined by a color development determination at 800 nm according to D. Lebel, G. Poirier et al. method (Anal. Biochem. 85, 86-89, 1978), at which the reading of the absorbance is taken as C1. On the other hand, a similar determination was carried out in the absence of potassium chloride, at which the reading of the absorbance is taken as C2. The inhibitory activity was determined by a similar procedure as in the above reaction, but adding 5 μl of a dimethyl sulfoxide solution containing 1 to 20 mg/ml of the inhibiting substance (test compound), instead of dimethyl sulfoxide. In that case, the readings of the absorbance in the presence and absence of potassium chloride are taken as T1 and T2, respectively.
% Inhibition (I) of the inhibiting substance (test compound) is calculated by the following equation.

[1] = background statement; cited from earlier work

T1 sequence (P19156 2-1034 limits assumed): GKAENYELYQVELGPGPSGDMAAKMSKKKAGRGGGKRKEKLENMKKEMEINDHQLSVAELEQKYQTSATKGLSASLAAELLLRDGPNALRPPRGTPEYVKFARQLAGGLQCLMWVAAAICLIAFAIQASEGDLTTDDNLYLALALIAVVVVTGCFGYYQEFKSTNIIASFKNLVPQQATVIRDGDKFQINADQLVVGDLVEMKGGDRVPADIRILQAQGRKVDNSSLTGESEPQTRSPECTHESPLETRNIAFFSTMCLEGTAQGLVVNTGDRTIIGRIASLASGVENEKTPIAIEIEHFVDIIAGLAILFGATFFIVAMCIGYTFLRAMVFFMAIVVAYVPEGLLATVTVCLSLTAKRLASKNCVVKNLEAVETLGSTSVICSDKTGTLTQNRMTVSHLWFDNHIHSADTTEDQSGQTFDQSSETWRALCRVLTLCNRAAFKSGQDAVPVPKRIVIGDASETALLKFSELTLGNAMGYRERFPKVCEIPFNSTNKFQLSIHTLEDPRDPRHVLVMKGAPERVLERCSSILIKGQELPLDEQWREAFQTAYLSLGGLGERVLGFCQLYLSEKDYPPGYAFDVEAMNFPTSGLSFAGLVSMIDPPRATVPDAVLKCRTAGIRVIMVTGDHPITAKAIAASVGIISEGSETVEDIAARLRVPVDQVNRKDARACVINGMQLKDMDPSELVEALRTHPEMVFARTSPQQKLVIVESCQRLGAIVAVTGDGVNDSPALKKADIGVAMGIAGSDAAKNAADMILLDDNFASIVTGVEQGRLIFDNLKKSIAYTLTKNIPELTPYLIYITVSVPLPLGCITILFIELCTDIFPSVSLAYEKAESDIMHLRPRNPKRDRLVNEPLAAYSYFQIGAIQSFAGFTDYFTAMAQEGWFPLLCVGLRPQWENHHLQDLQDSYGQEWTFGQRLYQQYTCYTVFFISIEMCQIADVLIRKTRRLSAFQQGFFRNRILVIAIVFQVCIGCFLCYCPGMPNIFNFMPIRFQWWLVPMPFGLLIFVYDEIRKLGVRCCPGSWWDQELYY
T1 sequence (P18434 whole entry partner): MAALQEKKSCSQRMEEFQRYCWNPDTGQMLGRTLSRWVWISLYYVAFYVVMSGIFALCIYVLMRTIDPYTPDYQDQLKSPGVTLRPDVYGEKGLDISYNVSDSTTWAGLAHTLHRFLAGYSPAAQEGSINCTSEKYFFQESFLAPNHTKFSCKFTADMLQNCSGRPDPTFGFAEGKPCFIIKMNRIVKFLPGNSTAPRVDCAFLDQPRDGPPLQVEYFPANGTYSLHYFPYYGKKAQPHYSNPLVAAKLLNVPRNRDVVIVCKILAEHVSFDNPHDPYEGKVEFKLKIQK

Row | SMILES | inhibition at 10 µg/mL (H^+ /K^+ ATPase) | other results
1 | CN1CC[C@H]2c3cc(C4CCCN(C(=O)OCc5ccccc5)CCc5c4[nH]c4ccccc54)ccc3N(C)[C@H]2C1 (stereo partly drawn) [Example 1, 4a,9a-cis-6-(3-Benzyloxycarbonyl-1,2,4,5,6,7-hexahydro-3H-azonino[5,4-b]indole-7-yl)-2,9-dimethyl-1,2,3,4,4a,9a-hexahydro-pyrido[3,4-b]indole] | 54.9% | –
2 | CCOC(=O)N1CCCCC(c2ccc3c(c2)C2CCN(CC)CC2N3CC)c2[nH]c3ccccc3c2CC1 (stereo not shown) [Example 4, 6-(3-Ethoxycarbonyl-1,2,3,4,5,6,7,8-octahydro-azecino[5,4-b]indole-8-yl)-2,9-diethyl-1,2,3,4,4a,9a-hexahydropyrido[3,4-b]indole] | – | inhibition at 20 µg/mL (H^+ /K^+ ATPase; 20 μg/ml): 84%
3 | CCN1CCC2c3cc(C4Cc5ccccc5CN(C(=O)OCc5ccccc5)CCc5c4[nH]c4ccccc54)ccc3N(CC)C2C1 (stereo not shown) [Example 10, 6-(13-Benzyloxycarbonyl-6,7,12,13,14,15-hexahydrobenzo[h]azecino[5,4-b]indole-6-yl)-2,9-diethyl-1,2,3,4,4a,9a-hexahydro-pyrido[3,4-b]indole] | – | inhibition at 5 µg/mL (H^+ /K^+ ATPase; 5 μg/ml): 98.4%
4 | CCN1CCC2c3cc(C4CCCN(C(=O)OCc5ccccc5)CCc5c4[nH]c4ccccc54)ccc3N(CC)C2C1 (stereo not shown) [Example 11, 6-(3-Benzyloxycarbonyl-1,2,4,5,6,7-hexahydro-3H-azonino[5,4-b]indole-7-yl)-2,9-diethyl-1,2,3,4,4a,9a-hexahydropyrido[3,4-b]indole] | 97.5% | –
5 | CCN1CCC2c3cc(C(C)c4[nH]c5ccccc5c4CCN(Cc4ccccc4)C(=O)OCc4ccccc4)ccc3N(CC)C2C1 (stereo not shown) [Example 19, 6-(1-(3-(2-Benzyl(benzyloxycarbonyl)aminoethyl)-indole-2-yl)ethyl)-2,9-diethyl-1,2,3,4,4a,9a-hexahydro-pyrido[3,4-b]indole] | 92.5% | –
6 | CCN1CCC2c3cc(C(O)c4c(CCN(Cc5ccccc5)Cc5ccccc5)c5ccccc5n4S(=O)(=O)c4ccc(C)cc4)ccc3N(CC)C2C1 (stereo not shown) [Example 34, 2,9-Diethyl-6-(3-(2-dibenzylaminoethyl)-1-tosyl-indole-2-yl)hydroxymethyl-1,2,3,4,4a,9a-hexahydro-pyrido[3,4-b]indole] | 80.8% | –
7 | CCN1CCC2c3cc(C(O)c4c(CCOCc5ccccc5)c5ccccc5n4Cc4ccccc4)ccc3N(CC)C2C1 (stereo not shown) [Example 39, 2,9-Diethyl-6-(3-(2-benzyloxyethyl)-1-benzyl-indole-2-yl)hydroxymethyl-1,2,3,4,4a,9a-hexahydro-pyrido[3,4-b]indole] | 78.8% | –
8 | CCN1CCC2c3cc(C(O)c4c(CCc5ccccn5)c5ccccc5n4S(=O)(=O)c4ccc(C)cc4)ccc3N(CC)C2C1 (stereo not shown) [Example 40] | 24.4% | –
9 | CCN1CCC2c3cc(C(OCc4ccccc4)c4c(CCN(Cc5ccccc5)Cc5ccccc5)c5ccccc5n4C)ccc3N(CC)C2C1 (stereo not shown) [Example 45, 6-(Benzyloxy-(3-(2-(N,N-dibenzylamino)ethyl)-1-methylindole-2-yl)-methyl)-2,9-diethyl-1,2,3,4,4a,9a-hexahydropyrido[3,4-b]indole] | 65.7% | –
10 | COc1ccc2[nH]c([S+]([O-])Cc3ncc(C)c(OC)c3C)nc2c1 (stereo not shown) [Omeprazole] | – | occurrence of side effects [1]: occurrence of carcinoid
